The text below walks through data of PMC5725665, “Discovery of a Highly Selective Cell‐Active Inhibitor of the Histone Lysine Demethylases KDM2/7” (Angewandte Chemie (International Ed. in English), 2017).

The first assay addresses T1, JMJD2A (KDM4A) (Homo sapiens, UniProt O75164).
T1 sequence (O75164 1-1064): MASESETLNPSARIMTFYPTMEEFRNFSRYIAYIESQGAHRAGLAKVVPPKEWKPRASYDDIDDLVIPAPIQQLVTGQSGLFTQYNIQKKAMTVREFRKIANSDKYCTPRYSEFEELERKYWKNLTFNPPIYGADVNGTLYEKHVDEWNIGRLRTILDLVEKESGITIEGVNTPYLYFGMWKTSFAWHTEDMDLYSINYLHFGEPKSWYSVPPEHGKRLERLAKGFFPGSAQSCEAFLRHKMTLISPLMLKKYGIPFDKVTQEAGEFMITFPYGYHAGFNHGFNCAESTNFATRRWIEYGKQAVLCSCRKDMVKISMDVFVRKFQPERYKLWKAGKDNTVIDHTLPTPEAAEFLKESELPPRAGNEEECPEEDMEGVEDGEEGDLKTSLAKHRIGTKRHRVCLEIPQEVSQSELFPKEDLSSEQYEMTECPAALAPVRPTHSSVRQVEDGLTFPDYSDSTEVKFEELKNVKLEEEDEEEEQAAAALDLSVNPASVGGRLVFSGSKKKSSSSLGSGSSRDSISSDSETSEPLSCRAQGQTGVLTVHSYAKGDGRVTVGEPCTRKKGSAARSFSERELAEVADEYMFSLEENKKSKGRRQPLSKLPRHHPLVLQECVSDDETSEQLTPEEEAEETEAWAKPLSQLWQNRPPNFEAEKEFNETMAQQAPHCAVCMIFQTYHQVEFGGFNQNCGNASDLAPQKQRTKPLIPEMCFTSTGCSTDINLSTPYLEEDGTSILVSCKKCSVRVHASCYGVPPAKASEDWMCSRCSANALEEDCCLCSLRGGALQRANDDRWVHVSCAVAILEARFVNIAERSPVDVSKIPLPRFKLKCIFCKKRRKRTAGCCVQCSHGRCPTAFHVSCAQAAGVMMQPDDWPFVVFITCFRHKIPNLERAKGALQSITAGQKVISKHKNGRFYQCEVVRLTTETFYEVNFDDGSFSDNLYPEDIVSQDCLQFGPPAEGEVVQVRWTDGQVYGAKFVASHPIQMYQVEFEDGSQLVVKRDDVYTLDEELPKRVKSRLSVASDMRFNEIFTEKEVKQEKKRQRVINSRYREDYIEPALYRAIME
In words: biochemical. Details: AlphaScreen histone demethylase activity assay. The following applies: read-out: KDM4A % Inhib. (18.75 uM).
Consider `CC(=O)N1c2ccccc2C(C#N)(c2ccccc2)C1c1cc(C#CCCCCCN2CCCC2)co1` (centres unmarked) [compound 134, 134], for which the inhibition at 18.75 µM is 19.4%.

Consider `CC(=O)N1c2ccccc2C(C#N)(c2ccccc2)C1c1ccc(C#CCCCCCN2CCCC2)o1` (centres unmarked) [compound 133, 133], for which the inhibition at 18.75 µM is 19.8%. Consider `CC(=O)N1c2ccccc2[C@](C#N)(c2ccccc2)[C@H]1c1cccc(/C=C/CCCCCN2CCCC2)c1` (racemic) [compound 9, 9], for which the inhibition at 18.75 µM is 3.4%.

A further assay concerns the target T2, KDM2A (Homo sapiens, UniProt Q9Y2K7).
T2 construct: isolated enzyme
T2 sequence (Q9Y2K7 1-517 limits assumed): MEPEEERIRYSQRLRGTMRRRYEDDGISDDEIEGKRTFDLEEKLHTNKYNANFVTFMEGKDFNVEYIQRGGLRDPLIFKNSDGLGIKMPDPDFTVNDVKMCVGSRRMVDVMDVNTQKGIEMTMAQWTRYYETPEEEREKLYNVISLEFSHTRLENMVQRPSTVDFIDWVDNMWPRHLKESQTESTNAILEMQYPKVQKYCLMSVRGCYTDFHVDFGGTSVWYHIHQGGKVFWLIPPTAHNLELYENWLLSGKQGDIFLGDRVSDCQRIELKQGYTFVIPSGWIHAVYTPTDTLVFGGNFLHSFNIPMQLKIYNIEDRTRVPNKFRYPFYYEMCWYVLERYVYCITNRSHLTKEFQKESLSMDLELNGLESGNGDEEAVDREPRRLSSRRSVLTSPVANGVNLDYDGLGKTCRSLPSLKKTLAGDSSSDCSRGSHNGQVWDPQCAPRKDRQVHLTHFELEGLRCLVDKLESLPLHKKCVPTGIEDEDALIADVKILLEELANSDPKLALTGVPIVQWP
In words: biochemical. Also on record: RapidFire MS histone peptide demethylation assay. Conditions: inhibitor. The protocol: [formula] Scheme 1 A) General synthetic strategy for racemic synthesis of KDM2A inhibitors. Reagents and conditions: i) Zn powder (10 equiv), NH4Cl (15 equiv), 5:1 acetone/H2O or H2, Pd/C (10 % w/w), EtOAc; ii) ArCHO (1.3 equiv), MgSO4 (5 equiv), PhMe or ArCHO (1.3 equiv), pyrrolidine (0.1 equiv), 3 Å sieves, CH2Cl2; iii) KO^tBu (1.1 equiv), PhMe, 0 °C; iv) R^3COCl (2–5 equiv), pyridine (2–5 equiv), CH2Cl2; v) metal‐catalysed cross‐coupling. B) Key structure–activity relationships. IC50 values were determined by RapidFire MS and confirmed by AlphaScreen. All compounds are racemic. C) Catalytic enantioselective synthesis. Reagents and conditions: i) CsOH⋅H2O (2.0 equiv), catalyst 14/16 (10 mol %), PhMe, −30 °C. Catalyst 14: 89 %, d.r. 10:1, e.r. 88:12; catalyst 16: 84 %, d.r. 7:1, e.r. 17:83; ii) CH3COCl (2.0 equiv), pyridine (2.0 equiv), CH2Cl2; iii) H2, Pd/C (10 % w/w), 88 % (2 steps); iv) K2CO3 (5 equiv), Br(CH2)7Br (4 equiv), acetone, reflux, 38 %; v) K2CO3 (5 equiv) pyrrolidine (4 equiv), CH3CN, 65 %; vi) PhN(SO2CF3)2 (1.1 equiv), DIPEA (2.0 equiv), CH2Cl2, 0 °C, 85 %; vii) 7‐pyrrolidine‐hept‐1‐yne (1.5 equiv), PdCl2(PPh3)2 (5 mol %), CuI (5 mol %), HN(^iPr)2, 75 °C, 79 %; viii) H2, Pd/C (10 % w/w), MeOH, 74 %. DIPEA=(^iPr)2NEt. A base‐mediated 5‐endo‐trig cyclization of a C‐2‐substituted aromatic imine afforded the racemic indoline core with two adjacent stereocenters. Subsequent acylation of the indoline ring system conferred stability towards oxidation and provided a handle for modulating polarity. Finally, metal‐catalysed cross‐coupling of the aryl bromide provided access to a variety of linkers between the indoline core and pyrrolidine capping group. In total, 45 racemic compounds were synthesized, and IC50 values for inhibition of KDM2A were determined using two orthogonal enzyme activity assays: AlphaScreen25 and RapidFire MS26 (see Section S3.1 in the Supporting Information for complete inhibition data). Key structure–activity relationships are summarized below (Scheme 1 B, compounds 2–12).
Turning to `CC(=O)N1c2ccccc2[C@@](C#N)(c2ccccc2)[C@@H]1c1cncc(OCCCCCCCN2CCCC2)c1` [(S,S)-3], the “KDM2A RapidFire pIC50” value was 6.401.

As to `N#C[C@]1(c2ccccc2)c2ccccc2N[C@@H]1c1cncc(C#CCCCCCN2CCCC2)c1` (relative stereo) [compound 137, 137], the “KDM2A RapidFire pIC50” value amounted to 5.884. As for `N#CCC(=O)N1c2ccccc2[C@](C#N)(c2ccccc2)[C@H]1c1cncc(CCCCCCCN2CCCC2)c1` (relative stereo) [compound 139, 139], the “KDM2A RapidFire pIC50” value came out at 6.368. The same measure, in the same setting: the result for `N#C[C@]1(c2ccccc2)c2ccccc2N[C@@H]1c1cncc(CCCCCCCN2CCCC2)c1` (relative stereo) [compound 142, 142] reads 6.708.

The same assay, now with this note: read-out: KDM2A RapidFire pIC50 (converted).
As for `CC(C)CC(=O)N1c2ccccc2[C@](C#N)(c2ccccc2)[C@H]1c1cccc(OCCCCCCCN2CCCC2)c1` (racemic) [compound 65, (2RS,3RS)-1-(3-Methylbutanoyl)-3-phenyl-2-(3-((7-(pyrrolidin-1-yl)heptyl)oxy)phenyl)indoline-3-carbonitrile], the IC50 is 1.35 µM. `CC(=O)N1c2ccccc2[C@](C#N)(c2ccccc2)[C@H]1c1cncc(/C=C\CCCCCN2CCCC2)c1` (racemic) [compound 152, (2RS,3RS)-1-Acetyl-3-phenyl-2-(5-((Z)-7-(pyrrolidin-1-yl)hept-1-en-1-yl)pyridin-3-yl)indoline-3-carbonitrile]: the IC50 was 0.838 µM.

For the compound `CC(=O)N1c2ccccc2[C@](C#N)(c2ccccc2)[C@H]1c1cccc(OCCCCCCN2CCCC2)c1` (racemic) [compound 58, (2RS,3RS)-1-Acetyl-3-phenyl-2-(3-((6-(pyrrolidin-1-yl)hexyl)oxy)phenyl)indoline-3-carbonitrile], the IC50 is 1.03 µM. In the case of `CC(=O)N1c2ccccc2[C@](C#N)(c2ccccc2)[C@H]1c1cccc(OCCCCN2CCCC2)c1` (racemic) [compound 56, (2RS,3RS)-1-Acetyl-3-phenyl-2-(3-(4-(pyrrolidin-1-yl)butoxy)phenyl)indoline-3-carbonitrile], the IC50 is 2.02 µM. `N#C[C@]1(c2ccccc2)c2ccccc2N(C(=O)c2ccc(C(F)(F)F)cc2)[C@@H]1c1cccc(OCCCCCCCN2CCCC2)c1` (racemic) [compound 66, (2RS,3RS)-3-Phenyl-2-(3-((7-(pyrrolidin-1-yl)heptyl)oxy)phenyl)-1-(4-(trifluoromethyl)benzoyl)indoline-3-carbonitrile]: the IC50 was 1.32 µM. The same measure, in the same setting: in the case of `N#C[C@]1(c2ccccc2)c2ccccc2N(C(=O)c2ccco2)[C@@H]1c1cccc(OCCCCCCCN2CCCC2)c1` (racemic) [compound 64, (2RS,3RS)-1-(Furan-2-carbonyl)-3-phenyl-2-(3-((7-(pyrrolidin-1-yl)heptyl)oxy)phenyl)indoline-3-carbonitrile] it was 0.883 µM. As to `CC(=O)N1c2ccccc2[C@](C#N)(c2ccccc2)[C@H]1c1cccc(OCCCCCCCCN2CCCC2)c1` (racemic) [compound 60, (2RS,3RS)-1-Acetyl-3-phenyl-2-(3-((8-(pyrrolidin-1-yl)octyl)oxy)phenyl)indoline-3-carbonitrile], the IC50 is 1.38 µM.

On to `CC(=O)N1c2ccccc2[C@](C#N)(c2ccccc2)[C@H]1c1cccc(OCCCCCN2CCCC2)c1` (racemic) [compound 57, (2RS,3RS)-1-Acetyl-3-phenyl-2-(3-((5-(pyrrolidin-1-yl)pentyl)oxy)phenyl)indoline-3-carbonitrile], for which the IC50 was 1.25 µM. Same read-out and setting: the result for `CC(=O)N1c2ccccc2[C@](C#N)(c2ccccc2)[C@H]1c1cccc(OCCCCCCCN2CCCC2)c1` (racemic) [compound 59, (2RS,3RS)-1-Acetyl-3-phenyl-2-(3-((7-(pyrrolidin-1-yl)heptyl)oxy)phenyl)indoline-3-carbonitrile] reads 0.893 µM; that for `CC(=O)N1c2ccccc2[C@](C#N)(c2ccccc2)[C@H]1c1cccc(OCCCCCCCN2CCOCC2)c1` (racemic) [compound 70, (2RS,3RS)-1-Acetyl-2-(3-((7-morpholinoheptyl)oxy)phenyl)-3-phenylindoline-3-carbonitrile], 3.26 µM. On the same count and under the same terms, in the case of `N#C[C@]1(c2ccccc2)c2ccccc2N(C(=O)c2ccccc2)[C@@H]1c1cccc(OCCCCCCCN2CCCC2)c1` (racemic) [compound 63, (2RS,3RS)-1-Benzoyl-3-phenyl-2-(3-((7-(pyrrolidin-1-yl)heptyl)oxy)phenyl)indoline-3-carbonitrile] it was 2.02 µM. On to `CC(=O)N1c2ccccc2[C@](C#N)(c2ccccc2)[C@H]1c1cccc(OCCCCCCCCCN2CCCC2)c1` (racemic) [compound 62, (2RS,3RS)-1-Acetyl-3-phenyl-2-(3-((9-(pyrrolidin-1-yl)nonyl)oxy)phenyl)indoline-3-carbonitrile], for which the IC50 was 1.51 µM. `CC(=O)N1c2ccccc2[C@](C#N)(c2ccccc2)[C@H]1c1cccc(OCCCCCCCN2CCCCC2)c1` (racemic) [compound 69, (2RS,3RS)-1-Acetyl-3-phenyl-2-(3-((7-(piperidin-1-yl)heptyl)oxy)phenyl)indoline-3-carbonitrile]: the IC50 is 1.07 µM.
